Data as given in patent publication US5242945A, “Tetronic and thiotetronic acid derivatives as phospholipase A2 inhibitors” (American Home Products Corporation, priority 1991, dated 1993).

How the values were obtained:
[1] = tested on: platelet-activating factor (PAF) biosynthesis in human polymorphonuclear neutrophils (PMN); assay: platelet-activating factor biosynthesis in human polymorphonuclear neutrophils (in vitro phospholipase A2 assay); type: cell-based; conditions: Polymorphonuclear neutrophil, human PMN
Procedure: The compounds of the invention are tested in an in vitro phospholipase A2 assay to determine the ability of the compounds to inhibit the biosynthesis of platelet-activating factor and LTB4 in purified human neutrophils.
A leukocyte enriched blood sample obtained from a healthy donor is procured by leukophoresis using a Haemonetics model 30+ blood processor (Biological Specialties, Inc., Lansdale, Penn.). The top "platelet-rich" layer is removed after a low speed spin (35 xg, 15 min, 25° C.) of the sample. The remaining cell suspension is centrifuged (400 xg, 10 min, 25° C.) to sediment the remaining cells. The supernatant is discarded and the cell pellet resuspended in 120 ml HBSS (without Ca^++ /Mg^++). The cell suspension is subjected to ficoll-hypaque sedimentation (Histopaque 1077, 400 xg, 30 min, 25° C.). Contaminating erythrocytes are lysed by hypotonic shock (1 min). The cells are then washed once with 40 ml of HBSS and resuspended with HBSS (without Ca^++ /Mg^++) to a concentration of 2.5×10^7 cells/ml for further use. Greater than 95% purity is obtained, as assessed by microscopic examination.
One ml of human PMN (2.5×10^7 cells/ml) is incubated with vehicle or drugs (10 μl) for 10 minutes at 30° C. After preincubation, an equal volume of HBSS (1 ml) containing 2.4 mM CaCl2, 6 μM calcium ionophore A23187 and 50 μCi [^3 H]-acetate is then incubated at 30° C. for 15 minutes. An aliquot (100 μl) of the reaction mixture is taken out and mixed with 900 μl of 15% ethanol. LTB4 is extracted by using solid phase extraction on reverse phase C18 columns to remove excess [^3 H]-acetate and PAD. The C18 column is prewashed once with 2 ml of ethanol and water. The sample aliquot is acidified with 0.1N HCl to pH 3 before applying to the column. The column is then washed with 2 ml of water followed by 2 ml of 15% ethanol and 2 ml of petroleum ether to remove excess labeled acetate. The sample is eluted with 2 ml of ethyl acetate. The collected samples are dried with nitrogen and resuspended in 0.5 ml RIA buffer. The quantity of LTB4 in the sample is obtained from RIA determination. For PAF determination, the reaction is terminated by addition of 5 ml chloroform:methanol:acetic acid (2:1:0.04, v/v/v). [^3 H]-PAF is obtained by Bligh and Dyer extraction. The chloroform phase is removed and dried under nitrogen. The residue is redissolved in 75 μl of chloroform:methanol (80:20, v/v). [^3 H]-PAF is resolved from other phospholipids by TLC on RPC18 plates with a solvent system of chloroform:methanol:water (2:3:1, v/v/v) and is quantitated using a Berthold automated TLC linear analyzer.
Data presented are the mean +/- s.d. of the values relative to control A23187 stimulated cells for each experiment assayed in triplicate. Percent inhibition when used is calculated as:
% Inhibition=100-[(x.div.Control)×100].
Dose response analysis is performed by non-linear regression analysis for curve fitting and IC50 determination.

human platelet PLA2 = biological target: T1, human platelet PLA2 (Homo sapiens, UniProt P14555); assay: in vitro isolated phospholipase A2 assay, human platelet PLA2; type: biochemical; conditions: for IC50: Table IV, read-out: IC50 HP (human platelet); for inhibition at 10 µM: + values given without explanation, read-out: % Inhibition HP (human platelet)
T1 construct: platelet acid extract PLA2; from tissue; host or cells: human platelets, semipurified acid extract
T1 sequence (P14555 21-144): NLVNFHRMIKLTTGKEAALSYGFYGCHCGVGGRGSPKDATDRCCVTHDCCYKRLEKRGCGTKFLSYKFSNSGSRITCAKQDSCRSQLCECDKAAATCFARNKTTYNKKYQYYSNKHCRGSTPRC
How it was run: (§1)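 PLA2 from semipurified human platelet acid extract or purified human synovial fluid, preincubated 30 min at room temperature with compound. ³H-arachidonate-labelled E. coli substrate then added in Tris-HCl pH 7.5, with enzyme giving about 12% hydrolysis. Reaction ran 10 min at 37° C; released arachidonic acid recovered on NH2 columns and measured by β-counting.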

[2] = biological target: T2, human synovial fluid PLA2 (Homo sapiens, UniProt P14555); assay: in vitro isolated phospholipase A2 assay, human synovial fluid PLA2; type: biochemical; conditions: for IC50: Table IV, read-out: IC50 HSF (human synovial fluid); for inhibition at 10 µM: + values given without explanation, read-out: % Inhibition HSF (human synovial fluid)
T2 construct: Purified human synovial fluid; from tissue; host or cells: human synovial fluid
T2 sequence (P14555 21-144): T1 sequence (P14555 21-144)
How it was run: as §1

5-lipoxygenase (LTC4) = assay: resident murine peritoneal macrophage assay, LTC4; type: cell-based, mouse (Swiss Webster); conditions: for IC50: read-out: LTC4 zymosan IC50; for LTC4 AA % Inhibition: arachidonic acid stimulation
Procedure: The ability of the compounds of the invention to act as inhibitors of the enzymes 5-lipoxygenase and cyclooxygenase is measured in the resident murine peritoneal macrophage assay.
Resident peritoneal macrophages are collected from female Swiss Webster mice (49 days old, 20-25 gms, Buckshire) by lavaging with 7-8 ml Hanks Balanced Salt Solution (HBSS) without Ca^++ and Mg^++ (GIBCO). The lavage fluid from several mice is pooled and centrifuged at 4° C. for 10 minutes at 400 xg.
Residual serum and cellular debris are removed from the monolayers by washing 3× with 2 ml HBSS containing Ca^++ and Mg^++. Macrophages are preincubated for 5 minutes with 1 ml serum-free M199 containing 10 μl dimethyl sulfoxide (DMSO) vehicle or test compound prior to cell activation with zymosan ([…]) or arachidonic acid (AA) (2 μM). After 2 hours, the supernatants are removed and either assayed for LTC4 and PGE2 by radioimmunoassay (RIA) directly or stored at -20° C. In all cases, results are expressed as ng metabolite/4×10^6 cells.
Raw data (dpm) may be stored directly onto an "Autostart" tape using the HP85 in room C-096. The raw data are converted to ng metabolite/4-10^6cells using the standard curve by a "RIANAL" program (HP85) or a "NONLIN" program (HP9816). Results are then expressed as percent inhibition of zymosan induced, leukotriene or prostaglandin synthesis (control) using the equation: [formula]

[3] = Mus musculus, Peritoneal macrophage, zymosan stimulation

Row | IC50 (human platelet PLA2) | inhibition at 10 µM (human platelet PLA2) | inhibition at 10 µM [2] | IC50 (5-lipoxygenase (LTC4); [3]) | SMILES | inhibition at 50 µM [1] | IC50 [2] | LTC4 AA % Inhibition (5-lipoxygenase (LTC4); dose 0.6 (unit not given)) | LTC4 AA % Inhibition (5-lipoxygenase (LTC4); dose 1.0 (unit not given)) | inhibition at 10 µM [1] | inhibition at 25 µM [1] | inhibition at 0.1 µM (5-lipoxygenase (LTC4); [3]) | inhibition at 0.5 µM (5-lipoxygenase (LTC4); [3]) | LTC4 AA % Inhibition (5-lipoxygenase (LTC4); dose 0.5 (unit not given)) | LTC4 AA % Inhibition (5-lipoxygenase (LTC4); dose 0.3 (unit not given)) | inhibition at 1 µM (5-lipoxygenase (LTC4); Mus musculus, Peritoneal macrophage, zymosan stimulation, 1.0 μM) | LTC4 AA % Inhibition (5-lipoxygenase (LTC4); dose 5 (unit not given))
1 | – | 62% | 81% | 700 nM | CCCCC/C=C\C/C=C\C/C=C\CCCCC(=O)C1=C(O)COC1=O [Example 20, (Z,Z,Z)-4-Hydroxy-3-(1-oxo-6,9,12-octadecatrienyl)-2(5H)-furanone] | 83% | – | – | -51% | – | – | – | – | – | – | – | –
2 | – | 30% | 77.5% | 450 nM | CC/C=C\C/C=C\C/C=C\CCCCCCCC(=O)C1=C(O)COC1=O [Example 15, (Z,Z,Z)-4-Hydroxy-3-(1-oxo-9,12,15-octadecatrienyl)-2(5H)-furanone] | 21% | – | – | – | – | – | – | – | – | – | – | –
3 | 13100 nM | 71% | 89.8% | 200 nM | CCCCCC1CC1CC1CC1CCCCCCCC(=O)C1=C(O)COC1=O (stereo not drawn) [Example 22, 4-Hydroxy-3-[1-oxo-8-[2-[(2-pentylcyclopropyl)methyl]cyclopropyl]octyl]-2(5H)-furanone] | 67% | 2500 nM | – | – | 24% | 49% | – | – | – | – | – | –
4 | – | 15.2% | 29.4% | – | CCCCCCCCCCC/C=C\CCCCC(=O)C1=C(O)CSC1=O [Example 51, 4-Hydroxy-3-[(Z)-1-oxo-6-octadecenyl]-2(5H)-thiophenone] | 70% | – | – | – | – | – | 21.1% | 59.4% | -4% | – | – | –
5 | – | 14.1% | 55.9% | – | CCCCC/C=C\C/C=C\C/C=C\CCCCC(=O)C1=C(O)CSC1=O [Example 50, 4-Hydroxy-3-[(Z,Z,Z)-1-oxo-6,9,12-octadecatrienyl]-2(5H)-thiophenone] | – | – | – | – | 42% | – | 38.8% | 48.1% | -33% | – | – | –
6 | – | 1.1% | 50.9% | – | CCCC/C=C\CCCCCCCC(=O)C1=C(O)CSC1=O [Example 48, 4-Hydroxy-3-[(Z)-1-oxo-9-tetra-decenyl]-2(5H)-thiophenone] | – | – | – | – | – | 76% | 25.3% | – | – | -5% | 77.1% | –
7 | 1700 nM | 44% | 95% | – | CCCCC/C=C\C/C=C\CCCCCCCC(=O)C1=C(O)COC1=O [Example 14, (Z,Z)-4-Hydroxy-3-(1-oxo-9,12-octadecadienyl)-2(5H)-furanone] | 64% | 480 nM | – | – | 16% | 19% | – | – | – | – | – | 61%
8 | – | 13.8% | 34.8% | 100 nM | CCCCCCCC/C=C\CCCCCCCC(=O)C1=C(O)CSC1=O [Example 47, 4-Hydroxy-3-[(Z)-1-oxo-9-octadecenyl]-2(5H)-thiophenone] | 35% | – | – | – | – | – | 46.2% | – | – | 9% | – | –
9 | 7500 nM | 68.6% | 28.4% | 300 nM | O=C(CCCCCCC/C=C\c1ccc(Cl)cc1)C1=C(O)COC1=O [Example 35, 3-[(Z)-10-(4-chlorophenyl)-1-oxo-9-decenyl]-4-hydroxy-2(5H)-furanone] | 5% | 16000 nM | – | – | – | – | – | – | – | – | – | –
10 | – | 16.4% | 72% | 300 nM | CCCCC/C=C\C/C=C\CCCCCCCC(=O)C1=C(O)CSC1=O [Example 46, 4-Hydroxy-3[(Z,Z)-1-oxo-9,12-octadecadienyl]-2(5H)-thiophenone] | 50% | – | – | – | – | 7% | – | – | -9% | – | – | –
11 | – | 46% | 9% | 160 nM | CCCCCCCCCCC/C=C\CCCCC(=O)C1=C(O)COC1=O [Example 18, (Z)-4-Hydroxy-3-(1-oxo-6-octadecenyl)-2(5H)-furanone] | 47% | – | – | – | – | 53% | – | – | – | -6% | – | –

Row | SMILES | IC50 (human platelet PLA2) | inhibition at 10 µM (human platelet PLA2) | inhibition at 10 µM [2] | IC50 (5-lipoxygenase (LTC4); [3]) | inhibition at 50 µM [1] | IC50 [2] | LTC4 AA % Inhibition (5-lipoxygenase (LTC4); dose 0.6 (unit not given)) | LTC4 AA % Inhibition (5-lipoxygenase (LTC4); dose 1.0 (unit not given)) | inhibition at 10 µM [1] | inhibition at 25 µM [1] | inhibition at 0.1 µM (5-lipoxygenase (LTC4); [3]) | inhibition at 0.5 µM (5-lipoxygenase (LTC4); [3]) | LTC4 AA % Inhibition (5-lipoxygenase (LTC4); dose 0.5 (unit not given)) | LTC4 AA % Inhibition (5-lipoxygenase (LTC4); dose 0.3 (unit not given)) | inhibition at 1 µM (5-lipoxygenase (LTC4); Mus musculus, Peritoneal macrophage, zymosan stimulation, 1.0 μM) | LTC4 AA % Inhibition (5-lipoxygenase (LTC4); dose 5 (unit not given))
12 | CCCC/C=C\CCCCCCCC(=O)C1=C(O)COC1=O [Example 25, 4-Hydroxy-3-((Z)-1-oxo-9-tetradecenyl)-2(5H)-furanone] | 26700 nM | 58.3% | 28.8% | 250 nM | 47% | 33400 nM | -4% | – | – | – | – | – | – | – | – | –
13 | CCCCCCCC/C=C\CCCCCCCC(=O)C1=C(O)COC1=O [Example 9, (Z)-4-Hydroxy-3-(1-oxo-9-octadecenyl)-2(5H)-furanone] | – | 18.5% | 97.3% | 200 nM | 56% | 1100 nM | – | – | – | – | – | – | – | 8% | – | –
14 | CCCCCCCCCC(=O)C1=C(O)COC1=O [Example 1, 4-Hydroxy-3-(1-oxodecyl)-2(5H)-furanone] | – | 14.9% | 35.1% | 2000 nM | 68% | 10800 nM | – | – | 13% | 32% | – | – | – | – | – | –
